# Experimental data taken from patent US4056622A, “N-sulfonyl-N-dihalophenylimidazolidinediones” (Sumitomo Chemical Company, Limited, priority 1975, dated 1977).
# Assays:
# [1] = system: Sclerotinia sclerotiorum; assay: Test for Sclerotinia sclerotiorum-controlling effect on cucumbers; assay type: in vivo; details: cucumber; 100 ppm active ingredient, 7 ml per pot; 3 days after inoculation
# Procedure: An aqueous dilution of the test compound in the form of a wettable powder preparation was applied to cucumbers, cultured in pots of 9 cm in diameter, when the first leaf was almost developed, at a rate of 7 ml per pot. After one day, Sclerotinia sclerotiorum was inoculated on the surface of the leaf, and the infectious state was examined three days thereafter. The degree of damage was determined in the following manner. The rate of infectious area on the leaf was measured and classified in one of the six infectious indexes (0, 1, 2, 3, 4, 5) according to the undermentioned criteria. The number of leaves corresponding to each infectious index (n0, n1, n2, n3, n4, n5) was determined, and calculation was effected according to the undermentioned equation.
# [2] = system: Botrytis cinerea; assay: Test for Botrytis cinerea on cucumbers: effect of prevention of diseased spot-development; assay type: in vivo; details: cucumber, 7 ml per pot, applied one day after inoculation
# Procedure: The test for examining the effect of prevention of diseased spot-development was carried out in the following manner. An agar disc with the mycelium was attached to the first leaf for inoculation. After one day, the diameter of the diseased spot was measured. The solution of the test compound was applied to the plant at a rate of 7 ml per pot, and two days thereafter, the diameter of the diseased spot was again measured, and the effect for prevention of diseased spot-development was calculated according to the following equation: [formula]
# [3] = system: Botrytis cinerea; assay: Test for Botrytis cinerea on cucumbers: systemic activity by the water culture method; assay type: in vivo; details: cucumber, 5 ppm solution, 3 days, 3 days after inoculation
# Procedure: The systemic activity of the test compound was tested by the water culture method in the following manner. The plants were pulled out from the pots carefully so as not to damage the roots, and the soil attached to the roots was well removed by water-washing. The plants were placed into flasks containing a 5 ppm solution of the test compound (50 ml) and allowed to stand for 3 days at a constant temperature under illumination. Agar discs with the mycelium were attached to the cotyledons for inoculation, and the degree of damage was examined three days thereafter.
# (§1) Percentage of control was determined by the following procedure. The rate of diseased area on the tested leaf was measured and classified in one of the six infectious indexes (0, 1, 2, 3, 4, 5) according to the undermentioned criteria. The number of leaves corresponding to each infectious index (n0, n1, n2, n3, n4, n5) was determined, and calculation was effected according to the undermentioned equation.
# [4] = system: Alternaria bracissicola; assay: Test for Alternaria bracissicola-controlling effect (chinese cabbage); assay type: in vivo; details: 7 ml per pot
# Procedure: An aqueous dilution of the test compound in the form of a wettable powder preparation was applied to chinese cabbage (variety: Nozaki No. 2), cultured in pots of 9 cm in diameter and almost grown up to the two leaved stage, at a rate of 7 ml per pot. After one day, a spore suspension of Alternaria bracissicola was sprayed on the surface of the leaf for inoculation. The pots were left in a dark, moist room for one day and then under illumination for 2 days. Then, the infectious state was examined. The degree of damage was determined in the following manner. The rate of infectious area on the leaf was measured and classified in one of the infectious indexes (0, 1, 2, 3, 4, 5) according to the undermentioned criteria. The number of leaves corresponding to each infectious index (n0, n1, n2, n3, n4, n5) was determined, and calculation was effected according to the undermentioned equation.
# [5] = system: Botrytis cinerea; assay: Test for Botrytis cinerea-controlling effect on cucumbers: disease preventing effect; assay type: in vivo; details: cucumber; 50 ppm active ingredient, 7 ml per pot; 3 days after inoculation
# Procedure: An aqueous dilution of the test compound in the form of a wettable powder preparation was applied to cotyledons of cucumbers, cultered in pots of 9 cm in diameter and the first leaf was nipped off when it developed, at a rate of 7 ml per pot. After one day, agar discs (diameter: 5 mm) with Botrytis cinerea were attached to the leaves for inoculation. Three days thereafter, the disease severity was observed, and the disease-controllingeffect was estimated.
# as §1
# [6] = system: Aspergillus niger ATCC 6275; assay: Antimicrobial spectrum against industrial fungi, agar medium dilution method: Aspergillus niger; assay type: cell-based; details: ATCC6275, A. niger, read-out: Minimal inhibitory concentration of active ingredient
# From the text: (§2) The effect for inhibition of hyphae growth was examined by the agar medium dilution method on Aspergillus niger ATCC 6275, Cladosporium herbarum IAM F 517 and Chaetomium globosum ATCC 6205 multiplying on industrial products and damaging them.
# [7] = system: Chaetomium globosum ATCC 6205; assay: Antimicrobial spectrum against industrial fungi, agar medium dilution method: Chaetomium globosum; assay type: cell-based; details: ATCC6205, C. globosum, read-out: Minimal inhibitory concentration of active ingredient
# From the text: as §2
# [8] = system: Cladosporium herbarum IAM F 517; assay: Antimicrobial spectrum against industrial fungi, agar medium dilution method: Cladosporium herbarum; assay type: cell-based; details: IAMF517, C. herbarum, read-out: Minimal inhibitory concentration of active ingredient
# From the text: as §2
# [9] = system: Pellicularia sasakii; assay: Test for Pellicularia sasakii-controlling effect on rice plants; assay type: in vivo; details: dust, 1.4 % active ingredient, 3 kg per 10 a, 5 days after inoculation
# Procedure: The test compound in the form of a dust preparation was applied to rice plants (variety: Wase-Asahi), cultured in porcelain Wagner pots (1/500 a) and grown up to a grass height of 50 to 60 cm, at a rate of 3 kg per 10 a by the use of a duster. After one day, a mycelial disc of Pellicularia sasakii was attached to the sheath of each stem for inoculation. Five days thereafter, the size of the diseased spot generated on the sheath was measured, and the degree of damage was calculated according to the following equation to estimate the disease-controlling effect of the compound. [formula]
smiles,measurement,setting,value
CCCCS(=O)(=O)N1CC(=O)N(c2cc(Cl)cc(Cl)c2)C1=O [Compound 57],Degree of damage,[1],0%
same,Effect for prevention of diseased spot-development,[2]; 100 ppm,65%
same,Disease-preventing value: Systemic activity,[3],79%
same,Degree of damage,[4]; 100 ppm active ingredient,1%
same,Degree of damage,[4]; 200 ppm active ingredient,0%
same,Disease-preventing value: Disease preventing effect,[5],98%
CS(=O)(=O)N1CC(=O)N(c2cc(Cl)cc(Cl)c2)C1=O [Compound 53],Degree of damage,[4]; 100 ppm active ingredient,7%
same,Degree of damage,[4]; 200 ppm active ingredient,11%
C=CCS(=O)(=O)N1CC(=O)N(c2cc(Cl)cc(Cl)c2)C1=O [Compound 63],Degree of damage,[1],9%
CCCS(=O)(=O)N1CC(=O)N(c2cc(Br)cc(Br)c2)C1=O [Compound 64],Degree of damage,[1],0%
CCCCCS(=O)(=O)N1CC(=O)N(c2cc(Cl)cc(Cl)c2)C1=O [Compound 61],MIC,[6],1000 µg/mL
same,MIC,[7],1000 µg/mL
same,MIC,[8],2000 µg/mL
O=C1CN(S(=O)(=O)CCCCl)C(=O)N1c1cc(Cl)cc(Cl)c1 [Compound 70],Degree of damage,[1],0%
same,Degree of damage,[4]; 100 ppm active ingredient,2%
same,Degree of damage,[4]; 200 ppm active ingredient,1%
CCCS(=O)(=O)N1CC(=O)N(c2cc(Cl)cc(Cl)c2)C1=O [Compound 55],Degree of damage,[1],0%
same,Effect for prevention of diseased spot-development,[2]; 100 ppm,88%
same,Degree of damage,[9],25%
same,Disease-preventing value: Systemic activity,[3],88%
same,Degree of damage,[4]; 100 ppm active ingredient,0%
same,Degree of damage,[4]; 200 ppm active ingredient,0%
same,Disease-preventing value: Disease preventing effect,[5],100%
CCC(C)S(=O)(=O)N1CC(=O)N(c2cc(Cl)cc(Cl)c2)C1=O (stereo not shown) [Compound 59],MIC,[6],1000 µg/mL
same,Degree of damage,[9],19%
same,MIC,[7],1000 µg/mL
same,MIC,[8],1000 µg/mL
CCCS(=O)(=O)N1C(=O)N(c2cc(Cl)cc(Cl)c2)C(=O)C1(C)C [Compound 69],Degree of damage,[4]; 100 ppm active ingredient,21%
same,Degree of damage,[4]; 200 ppm active ingredient,6%
CC(C)CS(=O)(=O)N1CC(=O)N(c2cc(Cl)cc(Cl)c2)C1=O [Compound 58],Effect for prevention of diseased spot-development,[2]; 100 ppm,73%
same,Disease-preventing value: Systemic activity,[3],63%
same,Disease-preventing value: Disease preventing effect,[5],100%
CCCS(=O)(=O)N1C(=O)N(c2cc(Cl)cc(Cl)c2)C(=O)C1C (stereo not shown) [Compound 66],Degree of damage,[1],3%
same,Degree of damage,[9],16%
"CCCCNC(=O)n1c(NC(=O)OC)nc2ccccc21 [Methyl-1-(butylcarbamoyl)-2-benzimidazole carbamate, reference compound]",Degree of damage,[1],32%
same,Effect for prevention of diseased spot-development,[2]; 500 ppm,87%
same,Disease-preventing value: Systemic activity,[3],91%
same,Disease-preventing value: Disease preventing effect,[5],90%
CCS(=O)(=O)N1CC(=O)N(c2cc(Cl)cc(Cl)c2)C1=O [Compound 54],Degree of damage,[1],12%
same,Degree of damage,[4]; 100 ppm active ingredient,5%
same,Degree of damage,[4]; 200 ppm active ingredient,2%
CC(C)S(=O)(=O)N1CC(=O)N(c2cc(Cl)cc(Cl)c2)C1=O [Compound 56],Degree of damage,[1],0%
same,Effect for prevention of diseased spot-development,[2]; 100 ppm,78%
same,Degree of damage,[9],19%
same,Disease-preventing value: Systemic activity,[3],92%
same,Disease-preventing value: Disease preventing effect,[5],100%
CCC(=O)N1CC(=O)N(c2cc(Cl)cc(Cl)c2)C1=O [reference compound],Effect for prevention of diseased spot-development,[2]; 500 ppm,21%
same,Disease-preventing value: Systemic activity,[3],0%
same,Disease-preventing value: Disease preventing effect,[5],89%
O=C1CNC(=O)N1c1cc(Cl)cc(Cl)c1 [reference compound],Effect for prevention of diseased spot-development,[2]; 500 ppm,13%
same,Disease-preventing value: Systemic activity,[3],0%
same,Disease-preventing value: Disease preventing effect,[5],70%
